Where two headings read alike, the source gives them in different places.
Assays:
[1] = system: Phosphorylation of ERK1/2 in MIA PaCa-2 cells; assay: Phospho-ERK1/2 MSD assay in MIA PaCa-2 cells; assay type: cell-based
Outline: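 MSD electrochemiluminescence readout of phospho-ERK1/2 in whole-cell lysates, IC50 by 4-parameter logistic fit. Compound titrations were applied for 2 or 4 h at 37 °C, 5% CO2, followed by 10 ng/mL EGF stimulation for 10 min before lysis.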

[2] = system: Phosphorylation of ERK1/2 in A549 cells; assay: Phospho-ERK1/2 MSD assay in A549 cells; assay type: cell-based
Experimental: For compounds in Table 89, the following assay conditions were employed:
Phospho-ERK1/2 MSD Assay:
Sixteen hours prior to compound treatment, MIA PaCa-2 or A549 cells were seeded in 96-well cell culture plates at a density of 25,000 cells/well and incubated at 37° C., 5% CO2. A compound dose-response titration was diluted in growth media, added to appropriate wells of a cell culture plate, and then incubated at 37° C., 5% CO2 for 2 or 4 hours (see Table 15). Following compound treatment, cells were stimulated with 10 ng/mL EGF (Roche 11376454001) for 10 min, washed with ice-cold Dulbecco's phosphate-buffered saline, no Ca^2+ or Mg^2+ (ThermoFisher Scientific 14190144), and then lysed in RIPA buffer (50 mM Tris-HCl pH 7.5, 1% Igepal, 0.5% sodium deoxycholate, 150 mM NaCl, and 0.5% sodium dodecyl sulfate) containing protease inhibitors (Roche 4693132001) and phosphatase inhibitors (Roche 4906837001). Phosphorylation of ERK1/2 in compound-treated lysates was assayed using Phospho-ERK1/2 Whole Cell Lysate kits (Meso Scale Discovery K151DWD) according to the manufacturer's protocol. Assay plates were read on a Meso Scale Discovery Sector Imager 6000, and data were analyzed using a 4-parameter logistic model to calculate IC50 values.

[3] = molecular target: GDP-bound KRAS protein (aa 1-169), containing both G12C and C118A amino acid substitutions (Homo sapiens, UniProt P01116, C118A/G12C); assay: Coupled nucleotide exchange assay (SOS-mediated, AlphaScreen); assay type: biochemical; conditions: 5 min compound pre-incubation
[4] = read-out: p-ERK IC50 (2 h; MIA PaCa-2), 2 h compound treatment
[5] = Homo sapiens, A549, 2 h, read-out: p-ERK IC50 (2 h; A549), 2 h compound treatment
[6] = Homo sapiens, MIA PaCa-2, 4 h, read-out: p-ERK IC50 (4 h; MIA PaCa-2), 4 h compound treatment
[7] = Homo sapiens, A549, 4 h, read-out: p-ERK IC50 (4 h; A549), 4 h compound treatment
[8] = Homo sapiens, MIA PaCa-2, 2 h, read-out: p-ERK IC50 (2 h; MIA PaCa-2), 2 h compound treatment

Chain of GDP-bound KRAS protein (aa 1-169), containing both G12C and C118A amino acid substitutions (P01116 1-169 isoform P01116-2 G12C/C118A): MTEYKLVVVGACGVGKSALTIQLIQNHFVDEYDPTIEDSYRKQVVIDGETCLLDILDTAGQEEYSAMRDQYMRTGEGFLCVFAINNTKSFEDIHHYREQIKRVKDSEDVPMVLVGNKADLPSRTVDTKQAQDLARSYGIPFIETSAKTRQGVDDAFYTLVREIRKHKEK

Structure (SMILES): C=CC(=O)N1CCN(c2nc(=O)n(-c3ccccc3C(C)C)c3cc(Br)c(Cl)cc23)[C@@H](C)C1 (single isomer, unassigned) [Example 9-17-1]
- IC50 ([1]; read-out: p-ERK IC50 (4 h; MIA PaCa-2), 4 h compound treatment): 2.18 µM
- IC50 ([2]; read-out: p-ERK IC50 (4 h; A549), 4 h compound treatment): 75.8 µM

Structure (SMILES): C=CC(=O)N1CCN(c2nc(=O)n(-c3ccccc3C(C)C)c3nc(-c4ccccc4Cl)c(Cl)cc23)[C@@H](C)C1 (single isomer, unassigned) [Example 54-84-1]
- IC50 [1, 4]: 0.744 µM
- IC50 [2, 5]: ≥ 100 µM

Structure (SMILES): C=CC(=O)N1CCN(c2nc(=O)n(-c3ccccc3C(C)C)c3nc(-c4ccccc4F)c(Cl)cc23)[C@@H](C)C1 (single isomer, unassigned) [Example 54-86-1]
- IC50 [1, 4]: 0.67 µM
- IC50 [2, 5]: ≥ 10 µM

Structure (SMILES): C=CC(=O)N1CCN(c2nc(=O)n(-c3ccccc3C(C)C)c3nc(-c4c(O)cccc4F)c(Cl)cc23)CC1 (single isomer, unassigned) [Example 60-24-1, (M)-6-chloro-7-(2-fluoro-6-hydroxyphenyl)-1-(2-(2-propanyl)phenyl)-4-(4-(2-propenoyl)-1-piperazinyl)pyrido[2,3-d]pyrimidin-2(1H)-one]
- IC50 [2, 5]: ≥ 100 µM

Structure (SMILES): C=CC(=O)N1CCN(c2nc(=O)n(-c3ccccc3C(C)C)c3cc(-c4ccccc4F)c(Cl)cc23)[C@@H](C)C1 (single isomer, unassigned) [Example 62-1-1]
- IC50 [1, 4]: 0.431 µM
- IC50 [2, 5]: ≥ 10 µM

Structure (SMILES): C=CC(=O)N1CCN(c2nc(=O)n(-c3ccccc3C(C)C)c3cc(-c4ccccc4F)c(Cl)cc23)CC1 (single isomer, unassigned) [Example 88-1, 6-chloro-7-(2-fluorophenyl)-1-(2-(2-propanyl)phenyl)-4-(4-(2-propenoyl)-1-piperazinyl)-2(1H)-quinazolinone]
- IC50 [2, 5]: ≥ 10 µM

Structure (SMILES): C=CC(=O)N1CCN(c2nc(=O)n(-c3ccccc3C(C)C)c3c(C)c(-c4c(O)cccc4F)c(Cl)cc23)[C@@H](C)C1 (single isomer, unassigned) [Example 90-1]
- IC50 [1, 6]: 0.221 µM
- IC50 [2, 7]: ≥ 33.3 µM

Structure (SMILES): C=CC(=O)N1CCN(c2nc(=O)n(-c3ccccc3C(C)C)c3cc(Br)c(Cl)cc23)[C@@H](C)C1 [Example 9-17]
- IC50 [1, 6]: 1.11 µM
- IC50 [2, 7]: 74.4 µM

Structure (SMILES): C=CC(=O)N1CCN(c2nc(=O)n(C(CC)CC)c3nc(-c4ccccc4F)c(Cl)cc23)[C@@H](C)C1 [Example 54-2, 6-chloro-7-(2-fluorophenyl)-4-((2S)-2-methyl-4-(2-propenoyl)-1-piperazinyl)-1-(3-pentanyl) pyrido[2,3-d]pyrimidin-2(1H)-one]
- IC50 [1, 8]: 66.6 µM
- IC50 [1, 6]: 55.6 µM
- IC50 [2, 5]: ≥ 100 µM
- IC50 [2, 7]: ≥ 100 µM

Structure (SMILES): C=CC(=O)N1CCN(c2nc(=O)n(-c3c(CC)cccc3CC)c3nc(C4CCCC4)c(Cl)cc23)[C@@H](C)C1 [Example 54-4, 6~chloro-7-cyclopentyl-1-(2,6-diethylphenyl)-4-((2S)-2-methyl-4-(2-propenoyl)-1-piperazinyl) pyrido[2,3-d]pyrimidin-2(1H)-one]
- IC50 [1, 8]: 2.25 µM
- IC50 [2, 5]: 48.9 µM

Structure (SMILES): C=CC(=O)N1CCN(c2nc(=O)n(-c3c(CC)cccc3CC)c3nc(-c4c(C)ccc5[nH]ncc45)c(Cl)cc23)[C@@H](C)C1 [Example 54-66, 6-chloro-1-(2,6-diethylphenyl)-7-(5-methyl-1H-indazol-4-yl)-4-((2S)-2-methyl-4-(2-propenoyl)-1-piperazinyl) pyrido[2,3-d]pyrimidin-2(1H)-one]
- IC50 [1, 8]: 0.1 µM
- IC50 [1, 6]: 0.122 µM
- IC50 [2, 5]: ≥ 10 µM
- IC50 [2, 7]: ≥ 100 µM

Structure (SMILES): C=CC(=O)N1CCN(c2nc(=O)n([C@@H]3CCc4ccccc43)c3nc(-c4ccccc4F)c(Cl)cc23)[C@@H](C)C1 [Example 54-67, 6-chloro-1-((1R)-2,3-dihydro-1H-inden-1-yl)-7-(2-fluorophenyl)-4-((2S)-2-methyl-4-(2-propenoyl)-1-piperazinyl) pyrido[2,3-d]pyrimidin-2(1H)-one]
- IC50 [1, 8]: ≥ 10 µM
- IC50 [2, 5]: ≥ 10 µM

Structure (SMILES): C=CC(=O)N1CCN(c2nc(=O)n(-c3ccccc3C(C)C)c3nc(Cl)c(Cl)cc23)CC1 [Example 54-80, 6,7-dichloro-1-(2-(2-propanyl)phenyl)-4-(4-(2-propenoyl)-1-piperazinyl) pyrido[2,3-d]pyrimidin-2(1H)-one]
- IC50 [1, 6]: 5.64 µM
- IC50 [2, 7]: ≥ 100 µM

Structure (SMILES): C=CC(=O)N1CCN(c2nc(=O)n(-c3ccccc3C(C)C)c3nc(-c4ccccc4Cl)c(Cl)cc23)[C@@H](C)C1 [Example 54-84, 6-chloro-7-(2-chlorophenyl)-4-((2S)-2-methyl-4-(2-propenoyl)-1-piperazinyl)-1-(2-(2-propanyl)phenyl)pyrido [2,3-d]pyrimidin-2(1H)-one]
- IC50 [1, 8]: 0.054 µM
- IC50 [1, 6]: 0.084 µM
- IC50 [2, 5]: ≥ 100 µM
- IC50 [2, 7]: ≥ 100 µM

Structure (SMILES): C=CC(=O)N1CCN(c2nc(=O)n(-c3ccccc3C(C)C)c3nc(-c4ccc(F)cc4F)c(Cl)cc23)[C@@H](C)C1 [Example 54-85, 6-chloro-7-(2,4-difluorophenyl)-4-((2S)-2-methyl-4-(2-propenoyl)-1-piperazinyl)-1-(2-(2-propanyl)phenyl)pyrido [2,3-d]pyrimidin-2(1H)-one]
- IC50 [1, 8]: 0.16 µM
- IC50 [2, 5]: ≥ 100 µM

Structure (SMILES): C=CC(=O)N1CCN(c2nc(=O)n(-c3ccccc3C(C)C)c3nc(-c4ccccc4F)c(Cl)cc23)[C@@H](C)C1 [Example 54-86, 6-chloro-7-(2-fluorophenyl)-4-((2S)-2-methyl-4-(2-propenoyl)-1-piperazinyl)-1-(2-(2-propanyl)phenyl)pyrido [2,3-d]pyrimidin-2(1H)-one]
- IC50 [1, 8]: 0.09 µM
- IC50 [2, 5]: ≥ 33.3 µM

Structure (SMILES): C=CC(=O)N1CCN(c2nc(=O)n(-c3ccccc3C(C)C)c3cc(-c4ccccc4C(F)(F)F)c(Cl)cc23)[C@@H](C)C1 [Example 62-2, 6-chloro-4-((2S)-2-methyl-4-(2-propenoyl)-1-piperazinyl)-1-(2-(2-propanyl)phenyl)-7-(2-(trifluoromethyl)phenyl)-2(1H)-quinazolinone]
- IC50 [2, 5]: ≥ 10 µM

Structure (SMILES): C=CC(=O)N1CCN(c2nnc(-c3c(C(C)C)cccc3C(C)C)c3nc(-c4ccccc4F)c(Cl)cc23)[C@@H](C)C1 [Example 138, 1-((3S)-4-(3-Chloro-8-(2,6-di(2-propanyl)phenyl)-2-(2-fluorophenyl)pyrido[2,3-d]pyridazin-5-yl)-3-methyl-1-piperazinyl)-2-propen-1-one]
- Coupled exchange IC50 (5 min) [3]: 1.75 | nda μM
- IC50 [1, 8]: 1.59 µM

Structure (SMILES): C=CC(=O)N1CCN(c2nc(=O)n(-c3c(C(C)C)nc(N)nc3C(C)C)c3nc(-c4ccccc4F)c(Cl)cc23)[C@@H](C)C1 [Example 139, 1-(2-Amino-4,6-di(2-propanyl)-5-pyrimidinyl)-6-chloro-7-(2-fluorophenyl)-4-((2S)-2-methyl-4-(2-propenoyl)-1-piperazinyl)pyrido[2,3-d]pyrimidin-2(1H)-one]
- Coupled exchange IC50 (5 min) [3]: 0.117 | nda μM
- IC50 [1, 8]: 0.025 µM

Structure (SMILES): C=CC(=O)N1CCN(c2nc(=O)n(-c3c(C(C)C)ncnc3N(C)C)c3nc(-c4ccccc4F)c(Cl)cc23)[C@@H](C)C1 [Example 140, 6-Chloro-1-(4-(dimethylamino)-6-(2-propanyl)-5-pyrimidinyl)-7-(2-fluorophenyl)-4-((2S)-2-methyl-4-(2-propenoyl)-1-piperazinyl)pyrido[2,3-d]pyrimidin-2(1H)-one]
- Coupled exchange IC50 (5 min) [3]: 0.09 | nda μM
- IC50 [1, 8]: 0.096 µM

Structure (SMILES): C=CC(=O)N1CCN(c2nc(=O)n(-c3c(C)cc(C(=O)O)cc3C(C)C)c3nc(-c4ccccc4F)c(Cl)cc23)[C@@H](C)C1 [Example 141, 4-(6-Chloro-7-(2-fluorophenyl)-4-((2S)-2-methyl-4-(2-propenoyl)-1-piperazinyl)-2-oxopyrido[2,3-d]pyrimidin-1(2H)-yl)-3-methyl-5-(2-propanyl)benzoic acid]
- Coupled exchange IC50 (5 min) [3]: 0.393 | nda μM
- IC50 [1, 8]: 5.2 µM

Structure (SMILES): C=CC(=O)N1CCN(c2nc(=O)n(-c3c(N)cccc3C(C)C)c3nc(-c4ccccc4F)c(Cl)cc23)[C@@H](C)C1 [Example 155, 1-(2-Amino-6-(2-propanyl)phenyl)-6-chloro-7-(2-fluorophenyl)-4-((2S)-2-methyl-4-(2-propenoyl)-1-piperazinyl)pyrido[2,3-d]pyrimidin-2(1H)-one]
- Coupled exchange IC50 (5 min) [3]: 0.108 | nda μM
- IC50 [1, 8]: 0.103 µM

Structure (SMILES): C=CC(=O)N1CCN(c2nc(=O)n(-c3c(C)cc(C(=O)OC)cc3C(C)C)c3nc(-c4ccccc4F)c(Cl)cc23)[C@@H](C)C1 [Example 156, Methyl 4-(6-chloro-7-(2-fluorophenyl)-4-((2S)-2-methyl-4-(2-propenoyl)-1-piperazinyl)-2-oxopyrido[2,3-d]pyrimidin-1(2H)-yl)-3-methyl-5-(2-propanyl)benzoate]
- Coupled exchange IC50 (5 min) [3]: 0.057 | nda μM
- IC50 [1, 8]: 0.08 µM

— patent US11090304B2 (Amgen Inc., priority 2018, dated 2021)
